Several values for one entry are separate records, joined by “and”; a condition that tells them apart may be missing. Equal values may be shown once.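 Each compound was tested at five concentrations against cells in 96-well plates for 48 hours. Abbreviation: GI50, concentration required for 50% inhibition of growth.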 Activity calls are given as the source filed them. No stated cut-off is given here; in the data, active = GI50 up to about 1.1 µM and inactive = higher.
Experiments:
Assay in all cases: NCI-60 cell line screen, 48 h
[1] = test system: CAKI-1
[2] = test system: HCT-116
[3] = test system: SN12C
[4] = test system: SR
[5] = test system: NCI-H23
[6] = test system: SF-295
[7] = test system: OVCAR-5
[8] = test system: OVCAR-3
[9] = test system: UACC-62
[10] = test system: SK-MEL-5
[11] = test system: TK-10
[12] = test system: HT-29
[13] = test system: SK-OV-3
[14] = test system: PC-3
[15] = test system: SW-620
[16] = test system: A549
[17] = test system: SNB-75
[18] = test system: Malme-3M
[19] = test system: M14
[20] = test system: SK-MEL-28
[21] = test system: RPMI-8226
[22] = test system: COLO 205
[23] = test system: MOLT-4
[24] = test system: SF-268
[25] = test system: SNB-19
[26] = test system: Hs-578T
[27] = test system: KM12
[28] = test system: LOX IMVI
[29] = test system: NCI-H226
[30] = test system: SF-539
[31] = test system: NCI/ADR-RES
[32] = test system: HOP-92
[33] = test system: MDA-N
[34] = test system: HCC 2998
[35] = test system: ACHN
[36] = test system: 786-0
[37] = test system: NCI-H522
[38] = test system: MDA-MB-231
[39] = test system: HL-60
[40] = test system: UO-31
[41] = test system: IGROV-1
[42] = test system: UACC-257
[43] = test system: MDA-MB-435
[44] = test system: K562
[45] = test system: OVCAR-8
[46] = test system: CCRF-CEM
[47] = test system: HOP-62
[48] = test system: DU-145
[49] = test system: RXF 393
[50] = test system: EKVX
[51] = test system: SK-MEL-2
[52] = test system: NCI-H460
[53] = test system: OVCAR-4
[54] = test system: MCF7
[55] = test system: U-251
[56] = test system: HCT-15
[57] = test system: A498
[58] = test system: T47D

CCOC(=O)C(C)(C)/C=C\C(Cl)=C(Cl)Cl
GI50 [1]: > 100 µM (inactive)
GI50 [2]: > 100 µM (inactive)
GI50 [3]: > 100 µM (inactive)
GI50 [4]: > 100 µM (inactive)
GI50 [5]: > 100 µM (inactive)
GI50 [6]: > 100 µM (inactive)
GI50 [7]: > 100 µM (inactive)
GI50 [8]: > 100 µM (inactive)
GI50 [9]: > 100 µM (inactive)
GI50 [10]: > 100 µM (inactive)
GI50 [11]: > 100 µM (inactive)
GI50 [12]: > 100 µM (inactive)
GI50 [13]: > 100 µM (inactive)
GI50 [14]: > 100 µM (inactive)
GI50 [15]: > 100 µM (inactive)
GI50 [16]: > 100 µM (inactive)
GI50 [17]: > 100 µM (inactive)
GI50 [18]: > 100 µM (inactive)
GI50 [19]: > 100 µM (inactive)
GI50 [20]: > 100 µM (inactive)
GI50 [21]: > 100 µM (inactive)
GI50 [22]: > 100 µM (inactive)
GI50 [23]: > 100 µM (inactive)
GI50 [24]: > 100 µM (inactive)
GI50 [25]: > 100 µM (inactive)
GI50 [26]: > 100 µM (inactive)
GI50 [27]: > 100 µM (inactive)
GI50 [28]: > 100 µM (inactive)
GI50 [29]: > 100 µM (inactive)
GI50 [30]: > 100 µM (inactive)
GI50 [31]: > 100 µM (inactive)
GI50 [32]: > 100 µM (inactive)
GI50 [33]: > 100 µM (inactive)
GI50 [34]: > 100 µM (inactive)
GI50 [35]: > 100 µM (inactive)
GI50 [36]: > 100 µM (inactive)
GI50 [37]: > 100 µM (inactive)
GI50 [38]: > 100 µM (inactive)
GI50 [39]: > 100 µM (inactive)
GI50 [40]: > 100 µM (inactive)
GI50 [41]: > 100 µM (inactive)
GI50 [42]: > 100 µM (inactive)
GI50 [43]: > 100 µM (inactive)
GI50 [44]: > 100 µM (inactive)
GI50 [45]: > 100 µM (inactive)
GI50 [46]: 71.6 µM (inactive)
GI50 [47]: > 100 µM (inactive)
GI50 [48]: > 100 µM (inactive)
GI50 [49]: > 100 µM (inactive)
GI50 [50]: > 100 µM (inactive)

CCCC1(CCC)c2cc(/C=N\O)ccc2-c2ccc(-c3ccc(C(C)(C)C)cc3)cc21
GI50 [1]: > 100 µM (inactive)
GI50 [51]: 29 µM (inactive)
GI50 [2]: 22.6 µM (inactive)
GI50 [3]: 23.1 µM (inactive)
GI50 [4]: 25.9 µM (inactive)
GI50 [52]: 38.5 µM (inactive)
GI50 [5]: 48.3 µM (inactive)
GI50 [6]: 33.2 µM (inactive)
GI50 [7]: > 100 µM (inactive)
GI50 [8]: 22.9 µM (inactive)
GI50 [53]: > 100 µM (inactive)
GI50 [10]: 80.4 µM (inactive)
GI50 [11]: 39 µM (inactive)
GI50 [12]: > 100 µM (inactive)
GI50 [54]: 25.6 µM (inactive)
GI50 [13]: > 100 µM (inactive)
GI50 [55]: > 10 µM (inactive)
GI50 [14]: 59.6 µM (inactive)
GI50 [15]: 34.2 µM (inactive)
GI50 [16]: 53.7 µM (inactive)
GI50 [17]: 67.1 µM (inactive)
GI50 [18]: > 100 µM (inactive)
GI50 [19]: 50.2 µM (inactive)
GI50 [20]: 26.7 µM (inactive)
GI50 [21]: 33.7 µM (inactive)
GI50 [22]: > 100 µM (inactive)
GI50 [56]: > 100 µM
GI50 [23]: 23.4 µM (inactive)
GI50 [57]: > 10 µM (inactive)
GI50 [24]: 56 µM (inactive)
GI50 [25]: > 100 µM (inactive)
GI50 [26]: 88.3 µM (inactive)
GI50 [27]: 55.3 µM (inactive)
GI50 [28]: 32.7 µM (inactive)
GI50 [30]: > 100 µM (inactive)
GI50 [31]: 53.8 µM (inactive)
GI50 [32]: 64.9 µM (inactive)
GI50 [33]: 57.3 µM (inactive)
GI50 [34]: 42.6 µM (inactive)
GI50 [35]: 41.9 µM (inactive)
GI50 [36]: 37.4 µM (inactive)
GI50 [38]: 19.5 µM (inactive)
GI50 [39]: 20.7 µM (inactive)
GI50 [40]: > 100 µM (inactive)
GI50 [41]: 61.9 µM (inactive)
GI50 [42]: 93.1 µM (inactive)
GI50 [44]: 45.7 µM (inactive)
GI50 [45]: 32.5 µM (inactive)
GI50 [58]: 57.5 µM (inactive)
GI50 [46]: 29.2 µM (inactive)
GI50 [47]: > 100 µM (inactive)
GI50 [48]: > 100 µM (inactive)
GI50 [50]: 56.8 µM (inactive)

CC1(C)C2CC(=O)C1(C)C(OCc1ccccc1)C2Br (stereo not drawn)
GI50 [2]: 19.3 µM (inactive) and 38.2 µM (inactive)
GI50 [4]: 21.4 µM (inactive) and 25.1 µM (inactive)
GI50 [5]: 40.7 µM (inactive) and 27.9 µM (inactive)
GI50 [6]: 25.2 µM (inactive) and 50.4 µM (inactive)
GI50 [9]: 34.9 µM (inactive) and 58.3 µM (inactive)
GI50 [10]: 14.6 µM (inactive) and 20.7 µM (inactive)
GI50 [11]: 53.6 µM (inactive)
GI50 [12]: 15.5 µM (inactive) and 22.6 µM (inactive)
GI50 [54]: 36 µM (inactive) and 62.8 µM (inactive)
GI50 [14]: 18 µM (inactive) and 28.6 µM (inactive)
GI50 [15]: 19.3 µM (inactive) and 32.7 µM (inactive)
GI50 [16]: 37.8 µM (inactive) and 59.3 µM (inactive)
GI50 [56]: 17.3 µM and 34 µM
GI50 [23]: 17.7 µM (inactive) and 17.3 µM (inactive)
GI50 [24]: 56.6 µM (inactive)
GI50 [31]: 20.7 µM (inactive) and 36.7 µM (inactive)
GI50 [39]: 22.5 µM (inactive) and 23.2 µM (inactive)
GI50 [41]: 74.8 µM (inactive) and 43.8 µM (inactive)
GI50 [43]: 29.9 µM (inactive) and 25.6 µM (inactive)
GI50 [44]: 27.1 µM (inactive) and 23.2 µM (inactive)
GI50 [58]: 46.2 µM (inactive) and 28.2 µM (inactive)
GI50 [46]: 15.8 µM (inactive) and 20.5 µM (inactive)
GI50 [50]: 50 µM (inactive) and 57.9 µM (inactive)

Cc1cc(NCCCCCCNc2cc(C)nc3ccc(N)cc23)c2cc(N)ccc2n1
GI50 [55]: 42.3 µM (inactive)
GI50 [25]: 37 µM (inactive)
